Results published in patent US7138361B2, “Herbicidal heterocycles” (E. I. du Pont de Nemours and Company, priority 2000, dated 2006).

How the values were obtained:
Assay type in all cases: in vivo
[1] = test system: common ragweed (Ambrosia elatior); test: Test C postemergence
How it was run: (§1)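 Plants held in greenhouse for 12–14 days post-application are scored by eye against controls on a 0–100 control scale. Application timing: preemergence on sown seed, or postemergence on 2–18 cm plants.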

[2] = test system: woolly cupgrass (Eriochloa villosa); test: Test C postemergence
How it was run: as §1

corn (Zea mays) = test: Test C postemergence
How it was run: as §1

[3] = test system: Surinam grass (Brachiaria decumbens); test: Test C postemergence
How it was run: as §1

[4] = test system: bermudagrass (Cynodon dactylon); test: Test C postemergence
How it was run: as §1

[5] = test system: johnsongrass (Sorghum halepense); test: Test C postemergence
How it was run: as §1

[6] = test system: pigweed (Amaranthus retroflexus); test: Test C postemergence
How it was run: as §1

kochia (Kochia scoparia) = test: Test C postemergence
How it was run: as §1

[7] = test system: chickweed (Stellaria media); test: Test C postemergence
How it was run: as §1

[8] = test system: yellow nutsedge (Cyperus esculentus); test: Test C postemergence
How it was run: as §1

[9] = test system: morningglory (Ipomoea hederacea); test: Test C postemergence
How it was run: as §1

[10] = test system: giant foxtail (Setaria faberii); test: Test C postemergence
How it was run: as §1

[11] = test system: cocklebur (Xanthium strumarium); test: Test C postemergence
How it was run: as §1

[12] = test system: crabgrass (Digitaria sanguinalis); test: Test C postemergence
How it was run: as §1

[13] = test system: duck salad (Heteranthera limosa); test: Test C flooded paddy test; details: for Ducksalad plant response rating: Flooded Paddy, scale 0 to 100, 0 no effect, 100 complete control; for Plant response rating, Ducksalad / Plant response rating (scale 0 to 100), Ducksalad: flooded paddy test; for Plant response rating, Ducksalad: scale 0 to 100 (0 no effect, 100 complete control)
How it was run: (§2)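 Visual injury score, 0 (no effect) to 100 (complete control), relative to controls. Paddy plants treated at 2-leaf stage; greenhouse hold 12–14 d before rating.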

[14] = test system: barnyardgrass (Echinochloa crus-galli); test: Test C flooded paddy test; details: for Barnyardgrass plant response rating: Flooded Paddy, scale 0 to 100, 0 no effect, 100 complete control; for Plant response rating, Barnyardgrass / Plant response rating (scale 0 to 100), Barnyardgrass: flooded paddy test; for Plant response rating, Barnyardgrass: scale 0 to 100 (0 no effect, 100 complete control)
How it was run: as §2

rice (Oryza saliva) = test: Test C flooded paddy test; details: for Rice plant response rating: Flooded Paddy, scale 0 to 100, 0 no effect, 100 complete control; for Plant response rating, Rice / Plant response rating (scale 0 to 100), Rice: flooded paddy test; for Plant response rating, Rice: scale 0 to 100 (0 no effect, 100 complete control)
How it was run: as §2

Sunflower = test: Test C preemergence; details: Rate 62 g/ha, scale 0 to 100
[15] = Rate 125 g/ha, scale 0 to 100, 0 no effect, 100 complete control
[16] = Rate 250 g/ha, scale 0 to 100 (0 no effect, 100 complete control)
[17] = Rate 500 g/ha, scale 0 to 100 (0 no effect, 100 complete control)
[18] = Rate 16 g/ha, visually evaluated after 12 to 14 days, 0 = no effect, 100 = complete control
[19] = under head Rate 16 g/ha, (own rate not given), after 12 to 14 days

`CCCC(C)c1ccn(C2OCN(c3cccc(OC(F)(F)F)c3)C2=O)n1` (stereo not drawn) [Compound 91] was tested, and the “Plant response rating, Ragweed, Common” value ([1]; Rate 62 g/ha, scale 0 to 100) was 0, the “Plant response rating, Ragweed, Common” value [1, 15] was 0 and the “Plant response rating, Ragweed, Common” value [1, 16] was 0. The “Plant response rating, Ragweed, Common” value [1, 17] was 40, the “Plant response rating, Cupgrass, Woolly” value ([2]; Rate 62 g/ha, scale 0 to 100) was 20 and the “Plant response rating, Cupgrass, Woolly” value [2, 15] was 20. The “Plant response rating, Cupgrass, Woolly” value [2, 16] was 40, the “Plant response rating, Cupgrass, Woolly” value [2, 17] was 40 and the “Plant response rating, Corn” value (corn (Zea mays); Rate 62 g/ha, scale 0 to 100) was 0. The “Plant response rating, Corn” value (corn (Zea mays); [15]) was 0, the “Plant response rating, Corn” value (corn (Zea mays); [16]) was 0 and the “Plant response rating, Corn” value (corn (Zea mays); [17]) was 0. The “Plant response rating, Surinam grass” value ([3]; Rate 62 g/ha, scale 0 to 100) was 20, the “Plant response rating, Surinam grass” value [3, 15] was 20 and the “Plant response rating, Surinam grass” value [3, 16] was 30. For the same compound, the “Plant response rating, Surinam grass” value [3, 17] was 30, the “Plant response rating, Bermudagrass” value ([4]; Rate 62 g/ha, scale 0 to 100) was 20 and the “Plant response rating, Bermudagrass” value [4, 15] was 20. The “Plant response rating, Bermudagrass” value [4, 16] was 40, the “Plant response rating, Bermudagrass” value [4, 17] was 60 and the “Plant response rating, Johnsongrass” value ([5]; Rate 62 g/ha, scale 0 to 100) was 20. For the same compound, the “Plant response rating, Johnsongrass” value [5, 15] was 20, the “Plant response rating, Johnsongrass” value [5, 16] was 30 and the “Plant response rating, Johnsongrass” value [5, 17] was 70. The “Plant response rating, Pigweed” value ([6]; Rate 62 g/ha, scale 0 to 100) was 70, the “Plant response rating, Pigweed” value [6, 15] was 70 and the “Plant response rating, Pigweed” value [6, 16] was 90. The “Plant response rating, Pigweed” value [6, 17] was 100, the “Plant response rating, Kochia” value (kochia (Kochia scoparia); Rate 62 g/ha, scale 0 to 100) was 70 and the “Plant response rating, Kochia” value (kochia (Kochia scoparia); [15]) was 70. The “Plant response rating, Kochia” value (kochia (Kochia scoparia); [16]) was 90, the “Plant response rating, Kochia” value (kochia (Kochia scoparia); [17]) was 90 and the “Plant response rating, Chickweed” value ([7]; Rate 62 g/ha, scale 0 to 100) was 70. The “Plant response rating, Chickweed” value [7, 15] was 80, the “Plant response rating, Chickweed” value [7, 16] was 80 and the “Plant response rating, Chickweed” value [7, 17] was 90. For the same compound, the “Plant response rating, Nutsedge” value ([8]; Rate 62 g/ha, scale 0 to 100) was 0, the “Plant response rating, Nutsedge” value [8, 15] was 0 and the “Plant response rating, Nutsedge” value [8, 16] was 0. For the same compound, the “Plant response rating, Nutsedge” value [8, 17] was 20, the “Plant response rating, Morningglory” value ([9]; Rate 62 g/ha, scale 0 to 100) was 0 and the “Plant response rating, Morningglory” value [9, 15] was 0. The “Plant response rating, Morningglory” value [9, 16] was 60, the “Plant response rating, Morningglory” value [9, 17] was 90 and the “Plant response rating, Foxtail, Giant” value ([10]; Rate 62 g/ha, scale 0 to 100) was 20. The “Plant response rating, Foxtail, Giant” value [10, 15] was 20, the “Plant response rating, Foxtail, Giant” value [10, 16] was 40 and the “Plant response rating, Foxtail, Giant” value [10, 17] was 40. The “Plant response rating, Cocklebur” value ([11]; Rate 62 g/ha, scale 0 to 100) was 0, the “Plant response rating, Cocklebur” value [11, 15] was 0 and the “Plant response rating, Cocklebur” value [11, 16] was 0. For the same compound, the “Plant response rating, Cocklebur” value [11, 17] was 20, the “Plant response rating, Crabgrass” value ([12]; Rate 62 g/ha, scale 0 to 100) was 20 and the “Plant response rating, Crabgrass” value [12, 15] was 20. For the same compound, the “Plant response rating, Crabgrass” value [12, 16] was 30, the “Plant response rating, Crabgrass” value [12, 17] was 60 and the “Ducksalad plant response rating” value ([13]; Rate 250 g/ha) was 90. The “Ducksalad plant response rating” value ([13]; Rate 500 g/ha) was 70, the “Plant response rating, Ducksalad” value ([13]; Rate 62 g/ha) was 80 and the “Plant response rating, Ducksalad” value ([13]; Rate 125 g/ha) was 0. For the same compound, the “Plant response rating (scale 0 to 100), Ducksalad” value [13, 18] was 0, the “Plant response rating (scale 0 to 100), Ducksalad” value [13, 19] was 0 and the “Barnyardgrass plant response rating” value ([14]; Rate 250 g/ha) was 100. The “Barnyardgrass plant response rating” value ([14]; Rate 500 g/ha) was 100, the “Plant response rating, Barnyardgrass” value ([14]; Rate 62 g/ha) was 0 and the “Plant response rating, Barnyardgrass” value ([14]; Rate 125 g/ha) was 50. The “Plant response rating (scale 0 to 100), Barnyardgrass” value [14, 18] was 0, the “Plant response rating (scale 0 to 100), Barnyardgrass” value [14, 19] was 0 and the “Rice plant response rating” value (rice (Oryza saliva); Rate 250 g/ha) was 20. For the same compound, the “Rice plant response rating” value (rice (Oryza saliva); Rate 500 g/ha) was 40, the “Plant response rating, Rice” value (rice (Oryza saliva); Rate 62 g/ha) was 0 and the “Plant response rating, Rice” value (rice (Oryza saliva); Rate 125 g/ha) was 20. For the same compound, the “Plant response rating (scale 0 to 100), Rice” value (rice (Oryza saliva); [18]) was 0, the “Plant response rating (scale 0 to 100), Rice” value (rice (Oryza saliva); [19]) was 0 and the “Plant response rating, Sunflower” value (Sunflower) was 0.
